Results taken from patent publication US9139502B2, “Use of an urushiol compound in preparation of pharmaceutical compositions for inhibiting Smad3 phosphorylation” (Southern Hospital, Southern Medical University, priority 2013, dated 2015).

Assays:
NRK52E cells = test: MTT cell viability test; assay type: cell-based, rat; conditions: GQ-5 0.25-4 μM, 1 h
Description: To test the toxicity of GQ-5, rat proximal tubular cells (NRK52E) were seeded into 96-well plates in a volume of 200 μl per well (1×10^5 cell/ml) and incubated for 24 hours to allow cells to attach. The cells were then incubated with indicated amount of GQ-5 for 1 h. Cell viability was determined by addition of 20 μl of 3-(4,5-dimethylthiazol-2-yl)-2, 5-diphenyltetrazolium bromide (MTT) at a concentration of 5 mg/ml. After incubation for 4 hours, the medium was removed and 150 μl of DMSO was added to dissolve the formazan crystals. The absorbance was read at 540 nm by using iMark™Microplate Reader (Bio-Rad).

Smad3 phosphorylation = test: Western blot of TGF-β1-induced Smad3 phosphorylation in vitro; assay type: cell-based, rat
Description: (§1) NRK52E and NRK49F cells were cultured in DMEM-Ham's medium supplemented with 10% fetal bovine serum. The cells reached at approximately 50% confluence were used for in vitro experiments. Cells were serum-starved for 12 h, and randomized into 6 groups: (1) Controls; (2) GQ-5 only; (3) TGF-β1 only; (4) TGF-β1+GQ-5 0.1 μM; (5) TGF-β1+GQ-5 0.5 μM; (6) TGF-β1+GQ-5 2.5 μM.
(2) GQ-5 only: pre-treated with GQ-5 (2.5 μM) for 1 h, followed with DMEM for 1 h
(3) TGF-β1 only: pre-treated with DMSO (0.1%) for 1 h, followed with TGF-β1 (10 ng/ml) for 1 h
(4) TGF-β1+GQ-5 0.1 μM: pre-treated with GQ-5 (0.1 μM) for 1 h, followed with TGF-β1 (10 ng/ml) for 1 h
(5) TGF-β1+GQ-5 0.5 μM: pre-treated with GQ-5 (0.5 μM) for 1 h, followed with TGF-β1 (10 ng/ml) for 1 h
(6) TGF-β1+GQ-5 2.5 μM: pre-treated with GQ-5 (2.5 μM) for 1 h, followed with TGF-β1 (10 ng/ml) for 1 h.
GQ-5 was dissolved in DMSO. Cells were treated as described. Cell lysates were immunoblotted with antibodies against phospho-Smad3, Smad3, phospho-Smad2, Smad2.
NRK52E cells were cultured in DMEM-Ham's medium supplemented with 10% fetal bovine serum. The cells reached at approximately 50% confluence were used for in vitro experiments. Cells were serum-starved for 12 h, and randomized into 8 groups: (1) Controls; (2) GQ-5 only; (3) TGF-β1 0.5 h; (4) TGF-β1 0.5 h+GQ-5; (5) TGF-β1 1.0 h; (6) TGF-β1 1.0 h+GQ-5; (7) TGF-β1 3.0 h; (8) TGF-β1 3.0 h+GQ-5;
(4) TGF-β1 0.5 h+GQ-5: pre-treated with GQ-5 (2.5 μM) for 1 h, followed with TGF-β1 (10 ng/ml) for 0.5 h
(6) TGF-β1 1.0 h+GQ-5: pre-treated with GQ-5 (2.5 μM) for 1 h, followed with TGF-β1 (10 ng/ml) for 1.0 h
(8) TGF-β1 3.0 h+GQ-5: pre-treated with GQ-5 (2.5 μM) for 1 h, followed with TGF-β1 (10 ng/ml) for 3.0 h
GQ-5 was dissolved in DMSO. Cells were treated as described. Cell lysates were immunoblotted with antibodies against phospho-Smad3, Smad3, phospho-Smad2, and Smad2.

Smad2 = test: Immunofluorescence staining of Smad2 nuclear translocation; assay type: cell-based, rat; conditions: NRK52E cells, GQ-5 2.5 μM pre-treated 1 h, TGF-β1 10 ng/ml 2 h
Description: NRK52E cells were cultured in DMEM-Ham's medium supplemented with 10% fetal bovine serum. The cells reached at approximately 50% confluence were used for in vitro experiments. Cells were serum-starved for 12 h, and randomized into 3 groups: (1) Controls; (2) TGF-β1 only; (3) TGF-β1+GQ-5.
(2) TGF-β1 only: pre-treated with DMSO for 1 h, followed with TGF-β1 (10 ng/ml) for 2 h
(3) TGF-β1+GQ-5: pre-treated with GQ-5 (2.5 μM) for 1 h, followed with TGF-β1 (10 ng/ml) for 2 h
GQ-5 was dissolved in DMSO. Cells were treated as described Immunofluorescence staining was performed to examine the nuclear translocation of Smad2, Smad3, and Smad4.

collagen I = test: Real-time PCR of TGF-β1-induced collagen I mRNA in vitro; assay type: cell-based, rat; conditions: NRK 52E and NRK 49F cells, GQ-5 0.1-2.5 μM pre-treated 1 h, TGF-β1 10 ng/ml 36 h
Description: as §1, with “μM” for “μM.”
(2) GQ-5 only: pre-treated with GQ-5 (2.5 μM) for 1 h, followed with DMEM for 36 h
(3) TGF-β1 only: pre-treated with DMSO for 1 h, followed with TGF-β1 (10 ng/ml) for 36 h
(4) TGF-β1+GQ-5 0.1 μM: pre-treated with GQ-5 (0.1 μM) for 1 h, followed with TGF-β1 (10 ng/ml) for 36 h
(5) TGF-β1+GQ-5 0.5 μM: pre-treated with GQ-5 (0.5 μM) for 1 h, followed with TGF-β1 (10 ng/ml) for 36 h
(6) TGF-β1+GQ-5 2.5 μM: pre-treated with GQ-5 (2.5 μM) for 1 h, followed with TGF-β1 (10 ng/ml) for 36 h
GQ-5 was dissolved in DMSO. Cells were treated as described. Cells were collected for mRNA extraction. Real-rime PCR was performed to examine the mRNA expression of α-SMA, collagen I and fibronectin.

α-SMA = α-SMA expression in UUO kidney tissue (real-time PCR, immunohistochemistry, Western blot); assay type: in vivo, rat; conditions: UUO rats, GQ-5 40 mg/kg daily i.p., sacrificed day 14
Description: Male Sprague-Dawley rats were randomized into 4 groups (n=6 in each group): (1) sham operated rats; (2) UUO rats; (3) UUO+GQ-5 d1 rats; (4) UUO+GQ-5 d7 rats.
GQ-5 was dissolved in 5% propylene glycol.
(3) UUO+GQ-5 d1 rats: daily intraperitoneal injection of GQ-5 (40 mg/kg body weight) right after UUO;
(4) UUO+GQ-5 d7 rats: daily intraperitoneal injection of GQ-5 (40 mg/kg body weight) 7 days after UUO.
UUO was performed using an established protocol as described. GQ-5 was dissolved in 5% propylene glycol. Rats were administrated with GQ-5 as described before. All the rats were sacrificed 14 days after UUO. HE staining, Masson trichrome staining were performed to examine the renal tissue injury, and Real-time PCR analyses, immunohistochemical staining, and Western blot analyses were performed to examine α-SMA, collagen I and fibronectin expression in kidney tissue

SMILES: CCCCCC/C=C\CCCCCCCc1cccc(O)c1O [GQ-5, 3-[(Z)-pentadec-8-enyl]catechol]
- viability and proliferation of the cells (MTT) (NRK52E cells): did not affect
- inhibitory effect in the absence of TGF-β1 stimulation (Smad3 phosphorylation; NRK52E and NRK49F cells, GQ-5 2.5 μM only): almost undetectable
- TGF-β1-induced Smad3 phosphorylation, dose dependence (Smad3 phosphorylation; NRK52E and NRK49F cells, GQ-5 0.1, 0.5, 2.5 μM pre-treated 1 h, TGF-β1 10 ng/ml 1 h): attenuated TGF-β1-induced Smad3 phosphorylation in a dose-dependent manner
- TGF-β1-induced Smad3 phosphorylation, time dependence (Smad3 phosphorylation; NRK52E cells, GQ-5 2.5 μM pre-treated 1 h, TGF-β1 10 ng/ml 0.5, 1.0, 3.0 h): attenuated TGF-β1-induced Smad3 phosphorylation in a time-dependent manner
- nuclear translocation of Smad2 (Smad2): also reduced
- TGF-β1-induced mRNA expression of collagen I (collagen I): significantly inhibited
- up-regulation of α-SMA at both mRNA and protein level (α-SMA): significantly inhibited
